Results published in patent publication US8044036B2 (priority 2005, dated 2011).

Columns and labels:
[1] = test system: Pyricularia oryzae; format: cell-based; conditions: application rate 3 ppm; 5 days incubation in PDB; 100% = no fungal growth
[2] = test system: Septoria tritici; experiment: Septoria tritici test (in vitro)/microtitre plates; format: cell-based; conditions: application rate 0.3 ppm; 5 days incubation in PDB; 100% = no fungal growth

Row | Compound | Efficacy in % found [1] [%] | Efficacy in % found [2] [%]
1 | OC(Cc1ccccc1Cl)(Cn1nc[nH]c1=S)C1(Cl)CC1 (racemic) [prothioconazole, 2-[(2RS)-2-(1-chlorocyclopropyl)-3-(2-chlorophenyl)-2-hydroxy-propyl]-2H-1,2,4-triazole-3(4H)thione] | 23 | 21
2 | C=CCNC(=O)c1c([Si](C)(C)C)sc(C)c1C [silthiofam, N-alkyl-4,5-dimethyl-2-(trimethylsilyl)thiophene-3-carboxamide] | 29 | 10
